Laboratory results reported in PubChem BioAssay AID330 (DTP/NCI, 2004).
Several values for one entry are separate records, joined by “and”; a condition that tells them apart may be missing. Equal values may be shown once. Inconclusive results and toxic doses are left out.

Test system: P388 leukemia ip, CD2F1 mice, survival T/C
Assay: NCI In Vivo Anticancer Drug Screen. Data for tumor model P388 Leukemia (intraperitoneal) in CD2F1 (CDF1) mice
Conditions: endpoint: median survival time, higher = longer survival
Procedure, shortened: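 Mice carrying the transplanted tumor received test compound or vehicle. Survival was recorded in each group, and the value is the treated-group measurement divided by that of the vehicle-treated control group.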

[1] = dose: 50.0 mg/kg/injection, schedule: Q01DX005 (ip), vehicle: saline
[2] = dose: 100.0 mg/kg/injection, schedule: Q01DX005 (ip), vehicle: saline
[3] = dose: 200.0 mg/kg/injection, schedule: Q01DX005 (ip), vehicle: saline
[4] = dose: 60.0 mg/kg/injection, schedule: Q01DX005 (ip), vehicle: saline with Tween-80
[5] = dose: 120.0 mg/kg/injection, schedule: Q01DX005 (ip), vehicle: saline with Tween-80

Question: Which T/C (dose: 10.0 micrograms/kg/injection, schedule: Q01DX005 (ip), vehicle: saline + alcohol) does the source give for `CC1C(O)[C@@]2(OC[C@@]34C(=O)CC5(O)[C@H](CCC6Cc7nc8c(nc7C[C@]65C)CC5CC[C@@H]6C7=C[C@H]9O[C@@]%10(O[C@@](C)(CO)C[C@@H]%10O)C(C)[C@@]9(O)[C@]7(C)[C@@H](O)CC6[C@]5(C)C8)C3=CC[C@H]4C2C)OC1(C)C` (some centres undefined) here?
Answer: 117 % of control and 121 % of control

Question: And the T/C (dose: 20.0 micrograms/kg/injection, schedule: Q01DX005 (ip), vehicle: saline + alcohol)?
Answer: 115 % of control and 117 % of control

Question: What about the T/C (dose: 40.0 micrograms/kg/injection, schedule: Q01DX005 (ip), vehicle: saline + alcohol) of the same compound?
Answer: 123 % of control and 124 % of control

Question: And the T/C (dose: 40.0 micrograms/kg/injection, schedule: Q01DX009 (ip), vehicle: saline + alcohol)?
Answer: 115 % of control

Question: What does the source list for `N=C1SC23CCCN2C(=O)C2(CCCN2C3=O)S1`?
Answer: T/C (dose: 100.0 mg/kg/injection, schedule: Q01DX001 (ip), vehicle: saline): 96 % of control; T/C (dose: 200.0 mg/kg/injection, schedule: Q01DX001 (ip), vehicle: saline): 92 % of control; T/C (dose: 400.0 mg/kg/injection, schedule: Q01DX001 (ip), vehicle: saline): 92 % of control

Question: What does the source list for `Nc1cc2cc([N+](=O)[O-])ccc2oc1=O`?
Answer: T/C (dose: 50.0 mg/kg/injection, schedule: Q01DX005 (ip), vehicle: Klucel + Tween-80): 96 % of control; T/C (dose: 100.0 mg/kg/injection, schedule: Q01DX005 (ip), vehicle: Klucel + Tween-80): 90 % of control; T/C (dose: 200.0 mg/kg/injection, schedule: Q01DX005 (ip), vehicle: Klucel + Tween-80): 87 % of control

Question: Which results are given for `OCCN1CCC(C2CCN(CCO)CC2)CC1`?
Answer: T/C [1]: 96 % of control; T/C [2]: 97 % of control; T/C [3]: 98 % of control

Question: For `Clc1cc2c(cc1CO/N=C\c1ccc3c(c1)OCO3)OCO2`, which T/C (dose: 50.0 mg/kg/injection, schedule: Q04DX003 (ip), vehicle: saline sonified) is on record?
Answer: 90 % of control

Question: And the T/C (dose: 100.0 mg/kg/injection, schedule: Q04DX003 (ip), vehicle: saline sonified)?
Answer: 95 % of control

Question: What about the T/C (dose: 200.0 mg/kg/injection, schedule: Q04DX003 (ip), vehicle: saline sonified) of the same compound?
Answer: 90 % of control

Question: What does the source list for `O=C(Nc1ccc(NC(=O)c2ccc(C3=NCCCN3)cc2)cc1)Nc1ccc(C2=NCCCN2)cc1`?
Answer: T/C (dose: 10.0 mg/kg/injection, schedule: Q01DX009 (ip), vehicle: saline with Tween-80): 163 % of control; T/C (dose: 10.0 mg/kg/injection, schedule: Q01DX009 (ip), vehicle: saline): 113 % of control; T/C (dose: 20.0 mg/kg/injection, schedule: Q01DX009 (ip), vehicle: saline): 159 % of control

Question: Which T/C (dose: 50.0 mg/kg/injection, schedule: Q01DX005 (ip), vehicle: saline with Tween-80) does the source give for `Cn1c(=O)n2n(c1=O)C1(CCO)CCC2(CCO)CC1` here?
Answer: 99 % of control

Question: And the T/C (dose: 100.0 mg/kg/injection, schedule: Q01DX005 (ip), vehicle: saline with Tween-80)?
Answer: 103 % of control

Question: And the T/C (dose: 200.0 mg/kg/injection, schedule: Q01DX005 (ip), vehicle: saline with Tween-80)?
Answer: 100 % of control

Question: `O=C(Nc1ccc(Cl)cc1)OCC1C2C=CC(C2)C1CO` (centres undefined) was tested. Which T/C (dose: 100.0 mg/kg/injection, schedule: Q04DX003 (ip), vehicle: Klucel (hydroxypropylcellulose) (HPC)) did it give?
Answer: 101 % of control

Question: And the T/C (dose: 200.0 mg/kg/injection, schedule: Q04DX003 (ip), vehicle: Klucel (hydroxypropylcellulose) (HPC))?
Answer: 95 % of control

Question: And the T/C (dose: 400.0 mg/kg/injection, schedule: Q04DX003 (ip), vehicle: Klucel (hydroxypropylcellulose) (HPC))?
Answer: 104 % of control

Question: For `Clc1ccc(N=C2N=C(Nc3ccc(Cl)cn3)c3ccccc32)nc1`, which T/C (dose: 12.5 mg/kg/injection, schedule: Q01DX009 (ip), vehicle: saline with Tween-80) is on record?
Answer: 86 % of control

Question: And the T/C (dose: 25.0 mg/kg/injection, schedule: Q01DX009 (ip), vehicle: saline with Tween-80)?
Answer: 89 % of control

Question: What about the T/C (dose: 50.0 mg/kg/injection, schedule: Q01DX009 (ip), vehicle: saline with Tween-80) of the same compound?
Answer: 87 % of control and 95 % of control

Question: With `O=CN(CCC(=O)O)c1ccccc1` as the compound, how does the T/C [1] read?
Answer: 106 % of control

Question: And the T/C [2]?
Answer: 113 % of control

Question: And the T/C [3]?
Answer: 107 % of control

Question: Which T/C [4] does the source give for `COCCOC(=O)Nc1c(Cl)cccc1Cl` here?
Answer: 98 % of control

Question: What about the T/C [5] of the same compound?
Answer: 100 % of control

Question: And the T/C (dose: 240.0 mg/kg/injection, schedule: Q01DX005 (ip), vehicle: saline with Tween-80)?
Answer: 100 % of control

Question: What does the source list for `NCCn1[nH]c(=O)c2ncccc2c1=O`?
Answer: T/C [4]: 108 % of control; T/C [5]: 105 % of control

Question: What does the source list for `CCOP(=O)(Nc1cc(C)ccc1C)OCC`?
Answer: T/C (dose: 50.0 mg/kg/injection, schedule: Q01DX009 (ip), vehicle: saline): 100 % of control; T/C (dose: 100.0 mg/kg/injection, schedule: Q01DX001 (ip), vehicle: saline with Tween-80): 105 % of control; T/C (dose: 100.0 mg/kg/injection, schedule: Q01DX009 (ip), vehicle: saline): 104 % of control; T/C (dose: 200.0 mg/kg/injection, schedule: Q01DX001 (ip), vehicle: saline with Tween-80): 112 % of control; T/C (dose: 200.0 mg/kg/injection, schedule: Q01DX009 (ip), vehicle: saline): 106 % of control; T/C (dose: 400.0 mg/kg/injection, schedule: Q01DX001 (ip), vehicle: saline with Tween-80): 109 % of control

Question: For `OC(CN(Cc1nc2ccccc2[nH]1)Cc1nc2ccccc2[nH]1)CN(Cc1nc2ccccc2[nH]1)Cc1nc2ccccc2[nH]1`, which T/C [4] is on record?
Answer: 115 % of control

Question: What about the T/C [5] of the same compound?
Answer: 115 % of control
